From ChEMBL document CHEMBL1135835, “Biological activity of the tryprostatins and their diastereomers on human carcinoma cell lines” (2002)

Key:
Assay type in all cases: functional
[1] = tested on: NCI-H520; test: Growth inhibitory activity against H520 (human lung) cancer cell line at 100 uM dose.
[2] = tested on: MCF7; test: Growth inhibitory activity against MCF-7 (human breast) cancer cell line at 100 uM dose.
[3] = tested on: PC-3; test: Growth inhibitory activity against PC-3 (human prostate) cancer cell line at 10 uM dose.
[4] = tested on: NCI-H520; test: Growth inhibitory activity against H520 (human lung) cancer cell line at 10 uM dose
[5] = tested on: MCF7; test: Growth inhibitory activity against MCF-7 (human breast) cancer cell line at 10 uM dose.
[6] = tested on: PC-3; test: Growth inhibitory activity against PC-3 (human prostate) cancer cell line at 100 uM dose.
[7] = tested on: NCI-H522; test: Growth inhibitory activity against NCI-H522 (human lung) cancer cell line
[8] = tested on: PC-3; test: Growth inhibitory activity against PC-3 (human prostate) cancer cell line
[9] = tested on: MCF7; test: Gowth inhibitory activity against MCF-7 (human lbreast) cancer cell line

Structure (SMILES): CC(C)=CCc1[nH]c2ccccc2c1C[C@H]1NC(=O)[C@H]2CCCN2C1=O
- Cell survival [1]: 99.8%
- Cell survival [2]: >100%
- Cell survival [3]: 95.8%
- Cell survival [4]: >100%
- Cell survival [5]: >100%
- Cell survival [6]: 78.9%

Structure (SMILES): CC(C)=CCc1[nH]c2ccccc2c1C[C@H]1NC(=O)[C@@H]2CCCN2C1=O
- Cell survival [1]: 76.5%
- Cell survival [2]: >100%
- Cell survival [3]: 97.3%
- Cell survival [4]: >100%
- Cell survival [5]: >100%
- Cell survival [6]: 68.5%

Structure (SMILES): CC(C)=CCc1[nH]c2ccccc2c1C[C@@H]1NC(=O)[C@H]2CCCN2C1=O
- GI50 [7]: 15.8 µM
- Cell survival [1]: 0.1%
- Cell survival [2]: 0%
- Cell survival [3]: 59.3%
- Cell survival [4]: 88.3%
- GI50 [8]: 11.9 µM
- Cell survival [5]: 73.6%
- GI50 [9]: 15.9 µM
- Cell survival [6]: 0.2%

Structure (SMILES): COc1ccc2c(C[C@H]3NC(=O)[C@H]4CCCN4C3=O)c(CC=C(C)C)[nH]c2c1
- Cell survival [1]: 75.2%
- Cell survival [2]: >100%
- Cell survival [3]: >100%
- Cell survival [4]: 81.7%
- Cell survival [5]: >100%
- Cell survival [6]: 83.7%

Structure (SMILES): COc1ccc2c(C[C@@H]3NC(=O)[C@H]4CCCN4C3=O)c(CC=C(C)C)[nH]c2c1
- Cell survival [1]: 98.5%
- Cell survival [2]: 99%
- Cell survival [3]: >100%
- Cell survival [4]: 99.3%
- Cell survival [5]: >100%
- Cell survival [6]: >100%

Structure (SMILES): COc1ccc2c(C[C@H]3NC(=O)[C@@H]4CCCN4C3=O)c(CC=C(C)C)[nH]c2c1
- Cell survival [1]: >100%
- Cell survival [2]: >100%
- Cell survival [3]: >100%
- Cell survival [4]: >100%
- Cell survival [5]: >100%
- Cell survival [6]: >100%

Structure (SMILES): COc1ccc2c(C[C@@H]3NC(=O)[C@@H]4CCCN4C3=O)c(CC=C(C)C)[nH]c2c1 [TRYPROSTATIN A]
- Cell survival [1]: 79.4%
- Cell survival [2]: 95%
- Cell survival [3]: 99.2%
- Cell survival [4]: 80.1%
- Cell survival [5]: >100%
- Cell survival [6]: 95.6%

Structure (SMILES): CC(C)=CCc1[nH]c2ccccc2c1C[C@@H]1NC(=O)[C@@H]2CCCN2C1=O [TRYPROSTATIN B]
- Cell survival [1]: 60.5%
- Cell survival [2]: 66.7%
- Cell survival [3]: 95.5%
- Cell survival [4]: 77.6%
- Cell survival [5]: 88.2%
- Cell survival [6]: 68.9%
